Experimental data: BigSolDB 2.1

CC(=O)Nc1ccc(/C=N/NC(N)=S)cc1
solubility (mole fraction)
Settings	288.15 K	293.15 K	298.15 K	303.15 K	308.15 K	313.15 K	318.15 K
in n-hexane	5.55e-06	7.25e-06	1.03e-05	1.34e-05	1.75e-05	2.21e-05	2.93e-05
in n-octanol	0.00038	0.000439	0.000503	0.00058	0.000673	0.000762	0.000863
